# Data reported in patent US6479495B1, “Aminoalkylphenol derivatives and related compounds” (priority 1997, dated 2002).
# pIC50: −log10 of the molar value. Where a name gives a salt, the structure may show the parent alone. Read-outs that look alike come from different tables or passages of the source.
# Experiments:
# acetylcholinesterase = biological target: T1, acetylcholinesterase (Rattus norvegicus, UniProt P37136); test: biochemical; settings: read-out: Inhibition of Acetylcholinesterase Activity IC50
# T1 construct: corpora striata dissected free, weighted and homogenized in 19 volumes (approximately 7 mg protein/ml) of 0.05M Phosphate Buffer; from tissue; host or cells: rat brain corpora striata, crude homogenate
# T1 sequence (P37136 32-614): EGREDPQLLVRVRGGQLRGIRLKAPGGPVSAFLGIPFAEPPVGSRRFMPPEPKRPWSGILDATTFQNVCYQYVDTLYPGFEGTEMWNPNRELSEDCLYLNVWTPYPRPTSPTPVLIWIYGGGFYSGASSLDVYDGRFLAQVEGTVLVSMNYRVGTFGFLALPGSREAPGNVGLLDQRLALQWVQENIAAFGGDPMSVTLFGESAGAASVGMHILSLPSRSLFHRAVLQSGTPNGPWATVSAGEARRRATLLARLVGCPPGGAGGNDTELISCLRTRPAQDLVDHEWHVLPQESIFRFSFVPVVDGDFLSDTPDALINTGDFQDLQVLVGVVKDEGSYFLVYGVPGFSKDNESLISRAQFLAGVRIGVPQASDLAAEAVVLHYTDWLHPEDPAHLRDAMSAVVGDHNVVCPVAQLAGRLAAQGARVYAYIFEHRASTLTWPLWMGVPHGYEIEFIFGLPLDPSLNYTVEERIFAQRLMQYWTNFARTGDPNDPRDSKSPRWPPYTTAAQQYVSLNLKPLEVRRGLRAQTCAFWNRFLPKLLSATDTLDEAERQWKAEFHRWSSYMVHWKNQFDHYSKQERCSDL
# Procedure: 1. 0.05M Phosphate Buffer (pH 7.2)
# A solution of monobasic sodium phosphate monohydrate (6.85 g) in distilled water (100 ml) is added to a solution of dibasic sodium phosphate heptahydrate (13.4 g) and distilled water (100 ml) until a pH of 7.2 was attained. The solution was diluted 1 to 10 with distilled water.
# 3. 5,5-Dithiobisnitrobenzoic acid in Buffer
# The 0.05M Phosphate Buffer (pH 7.2) was added to 5.5-dithiobisnitrobenzoic acid to a total volume of 100 ml, i.e., a quantity sufficient (gs) to 100 ml.
# 4. Stock Solution of Drug
# A 2 millimolar stock solution of the test drug is prepared in a quantity sufficient of either acetic acid or dimethyl sulfoxide to volume with 5,5-dithiobisnitrobenzoic acid in Buffer. Stock Solution of Drug is serially diluted (1:10) so that the final cuvette concentration is 10^−4 molar.
# Male Wistar rats are decapitated, brains rapidly removed, corpora striata dissected free, weighted and homogenized in 19 volumes (approximately 7 mg protein/ml) of 0.05M Phosphate Buffer (pH 7.2) using a Potter-Elvejhem homogenizer. A 25 μl aliquot of this suspension is added to 1 ml of the vehicle or various concentrations of the test drug and preincubated for 10 minutes at 37° C. Enzyme activity is measured with a Beckman DU-50 spectrophotometer with the following software and instrument settings:
# Reagents are added to the blank and sample cuvettes as follows:
# Blank values are determined for each run to control for non-enzymatic hydrolysis of substrate and these values are automatically subtracted by the Kindata program available on kinetics soft-pac module. This program also calculates the rate of absorbance change for each cuvette.
# Substrate concentration is 10 millimolar diluted 1:2 in assay yielding final concentration of 5 millimolar. 5,5-dithiobisnitrobenzoicacid concentration is 0.5 millimolar yielding 0.25 millimolar final concentration. [formula]
# IC50 values are calculated from log-probit analysis
# [1] = Male Wistar rat corpora striata homogenate, preincubated 10 minutes at 37° C., acetylthiocholine substrate 5 millimolar final, log-probit analysis
melting point,Compound,pIC50 (acetylcholinesterase; [1]),also measured
81 to 83 °C,C#CCOc1cc(C=O)ccc1OS(C)(=O)=O,,
130 to 133 °C,COc1cc(CN2CCN(c3ccccc3F)CC2)ccc1OC(=O)N(C)C,,
,"CNC(=O)Oc1ccc(CN2CCN(c3ccccn3)CC2)cc1OC [Example 35, 4-[[3-Methoxy-4-(methylaminocarbonyloxy)]phenylmethyl]-1-(pyridin-2-yl)piperazine Hydrochloride Monohydrate]",6.27,
220 to 222 °C (dec.),"C#CCOc1cc(CN2CCc3cc(OC)c(OC)cc3C2)ccc1OC (as salt: hydrochloride) [Example 36, 6,7-Dimethoxy-N-[(4-methoxy)-3-(propargyloxy)phenylmethyl]-1,2,3,4-tetrahydroisoquinoline Hydrochloride]",,
,"COc1cc(C(C)N2CCN(c3ccccn3)CC2)ccc1OC(=O)N(C)C (stereo not shown) [Example 78, 1-[1-(4-N,N-Dimethylcarbamoyloxy-3-methoxyphenyl)ethyl]-4-pyridin-2-yl-piperazine Dihydrochloride]",6.45,
36 to 43 °C,CCOC(=O)COc1cc(C=O)ccc1OCc1ccccc1,,
140 to 145 °C,COc1cc(CN2CCN(c3ccccn3)CC2)ccc1OC(=O)N(C)C [Example 40],,
190 to 193 °C,COc1cc(CN2CCN(c3ccccc3Cl)CC2)ccc1OC(=O)N(C)C.Cl,,
,"COc1cc(CN2CCN(c3ccccn3)CC2)c(Br)cc1OC(=O)N(C)C [Example 67, N-(2-Bromo-4-[dimethylcarbamoyloxy]-5-methoxy)benzyl-N′-(pyridin-2-yl)-piperazine]",7.74,
196 to 206 °C,"COc1cc(CN2CCN(c3ccccc3OC)CC2)ccc1OC(=O)N(C)C (as salt: hydrochloride) [Example 49, 1-[[4-(Dimethylaminocarbonyloxy)-3-(methoxy)phenyl]methyl]-4-(2-methoxyphenyl)piperazine Dihydrochloride]",,
,4-(Methylaminocarbonyloxy)-3-(propargyloxy)1-(pyrrolidinomethyl)benzene Citrate [Example 17],8.44,
205 to 208 °C (dec.),"CNC(=O)Oc1ccc(CN2CCc3cc(OC)c(OC)cc3C2)cc1OC (as salt: hydrochloride) [Example 42, 2-[3-Methoxy-4-(methylaminocarbonyloxy)phenylmethyl]-1-(6,7-dimethoxy)-1,2,3,4-tetrahydroisoquinoline Hydrochloride]",,
,"CNC(=O)Oc1cc(CN2CCN(c3ccccn3)CC2)ccc1OC [Example 38, 4-[[4-Methoxy-3-(methylaminocarbonyloxy)]phenylmethyl]-1-(pyridin-2-yl)piperazine Dihydrochloride]",5.62,
155 to 157 °C,CNC(=O)Oc1ccc(CN2CCN(c3ccc([N+](=O)[O-])cc3)CC2)cc1OC,,
55 to 57 °C,COC1(OCCO)CCN(Cc2ccccc2)C1 (stereo not shown),,
,"CC(c1ccc(OC(=O)N(C)C)c(F)c1)N1CCN(c2ccccn2)CC1 (stereo not shown) [Example 74, 1-[1-(4-N,N-Dimethylcarbamoyloxy-3-fuorophenyl)ethyl]-4-pyridin-2-yl-piperazine]",,pIC50 (acetylcholinesterase): 4.85
